Assays:
[1] = system: A549 human lung adenocarcinoma cells; experiment: MTT cell viability assay, A549 cells; details: A549, 72 h, read-out: IC50 (µM) A549 Cells
Experimental: (§2) In experiments, K562 cells and PBMCs were cultured in 24-well and 96-well plates (Asahi Glass Co., Chiba, Japan) at 4 × 10^4 and 1 × 10^6 cells/mL concentrations, respectively, for 48 h. A549 cells were plated (24-well plate) at 1 × 10^4 cells/mL and incubated for 72 h (the optimal cell number was determined in our previous studies) [34, 35, 36]. The stock solutions of the compounds and erlotinib in concentrations ranging from 1 µM to 10 mM were prepared in DMSO (Wako Pure Chemical Industries, Osaka, Japan) and further diluted with fresh culture medium. The final DMSO concentration was adjusted as 1%, which had no effect on the cell viability [37].
(§3) Then, supernatants were discarded, and the formazan crystals were solubilized with a 100 μL DMSO addition. The absorbance of the solution was measured using an Infinite M1000 microplate reader (Tecan, Grödig, Austria) at a wavelength of 570 and 630 nm.

[2] = system: K562 chronic myelogenous leukemia (CML) cells; experiment: MTT cell viability assay, K562 cells; details: Homo sapiens, K562, 48 h, read-out: IC50 (µM) K562 Cells
Experimental: as §2, §3

[3] = system: peripheral blood mononuclear cells (PBMCs); experiment: MTT cell viability assay, PBMCs; details: for IC50: PBMC, 48 h, read-out: IC50 (µM) PBMCs; for cytotoxicity towards PBMCs (in words): MTT, normal cells
Experimental: as §2, §3

A549 cells = experiment: Annexin V/ethidium homodimer III staining assay (apoptosis); assay type: cell-based, human; details: IC50 concentrations, 15 h
Experimental: Then, an apoptotic/necrotic cell detection kit (PromoKine, Heidelberg, Germany) was used according to manufacturer′s instructions with some modifications. Briefly, the cells were washed twice with 1× binding buffer, a staining solution containing 50 μL of 1× binding buffer, 5 μL of FITC-Annexin V solution, and 5 μL of ethidium homodimer III solution, and treated for 30 min at room temperature in a protected-light environment. After washing of cells in 1× binding buffer, cells were analyzed under a Biorevo BZ-9000 all-in-one fluorescence microscope (Keyence, Osaka, Japan). The number of apoptotic cells, late apoptotic or necrotic cells, and necrotic cells was quantified as previously described.

EGFR TK = biological target: T1, EGFR TK (Homo sapiens, UniProt P00533); experiment: EGFR TK inhibition, kinase profiling / ADP-Glo Kinase Assay; assay type: biochemical; details: 4 h incubation at room temperature
T1 construct: purchased Promega Corporation
T1 sequence (P00533 25-1210): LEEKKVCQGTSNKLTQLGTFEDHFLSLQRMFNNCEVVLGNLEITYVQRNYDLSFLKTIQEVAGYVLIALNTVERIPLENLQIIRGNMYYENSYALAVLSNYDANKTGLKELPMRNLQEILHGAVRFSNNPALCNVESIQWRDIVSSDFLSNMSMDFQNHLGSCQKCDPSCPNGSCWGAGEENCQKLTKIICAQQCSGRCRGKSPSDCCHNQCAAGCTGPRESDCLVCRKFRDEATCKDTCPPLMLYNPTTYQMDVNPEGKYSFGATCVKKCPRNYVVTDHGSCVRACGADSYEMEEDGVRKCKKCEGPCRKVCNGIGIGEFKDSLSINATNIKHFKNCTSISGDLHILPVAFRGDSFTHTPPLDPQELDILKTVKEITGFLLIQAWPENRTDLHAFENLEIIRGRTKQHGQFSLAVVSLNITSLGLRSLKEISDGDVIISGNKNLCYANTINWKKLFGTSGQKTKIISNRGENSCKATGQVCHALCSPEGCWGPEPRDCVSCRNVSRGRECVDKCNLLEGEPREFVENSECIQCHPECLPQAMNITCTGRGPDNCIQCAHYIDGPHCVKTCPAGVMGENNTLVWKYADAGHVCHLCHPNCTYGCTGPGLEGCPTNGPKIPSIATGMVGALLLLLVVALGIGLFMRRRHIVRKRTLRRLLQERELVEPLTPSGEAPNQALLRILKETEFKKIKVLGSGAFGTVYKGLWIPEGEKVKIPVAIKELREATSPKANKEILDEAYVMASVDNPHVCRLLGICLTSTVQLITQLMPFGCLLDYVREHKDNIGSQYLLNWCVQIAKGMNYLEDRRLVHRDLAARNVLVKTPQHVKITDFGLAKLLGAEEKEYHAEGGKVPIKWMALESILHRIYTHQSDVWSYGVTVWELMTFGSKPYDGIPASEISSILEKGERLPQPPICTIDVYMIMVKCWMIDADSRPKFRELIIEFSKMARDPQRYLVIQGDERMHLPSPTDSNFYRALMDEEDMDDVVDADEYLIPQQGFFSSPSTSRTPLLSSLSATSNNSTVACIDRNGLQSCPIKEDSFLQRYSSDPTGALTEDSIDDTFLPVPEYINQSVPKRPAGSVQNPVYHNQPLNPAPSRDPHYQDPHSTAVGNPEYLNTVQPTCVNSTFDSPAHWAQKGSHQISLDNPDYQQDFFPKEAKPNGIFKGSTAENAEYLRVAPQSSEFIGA
Experimental: Manufacturer′s instructions (Promega Corporation, Madison, WI, USA) were applied for the kinase profiling assay protocol (TK-1 and TK-2) with small changes [40, 41, 42]. […] The kinase working stocks (2 µL), 2 µL of the ATP/substrate working stocks, and 1 µL of the tested compound solution (3–100 µM) and erlotinib solution (0.01–100 µM) or 5% DMSO solution in the 384-well plate were used for the kinase reactions. Following the 4 h of incubation at room temperature, the activity of kinases was screened by means of the ADP-Glo Kinase Assay (Promega Corporation, Madison, WI, USA) based on the manufacturer′s protocol. The Infinite M1000 microplate reader (Tecan, Grödig, Austria) was used to measure the kinase inhibitory effects of the compounds in a dose-response manner. Besides, the IC50 values of the tested compounds were determined using ImageJ software.

LCK = biological target: T2, LCK (Homo sapiens, UniProt P06239); experiment: Kinase selectivity profiling TK-2, LCK; assay type: biochemical; details: 30 µM concentration
T2 construct: purchased Promega Corporation
T2 sequence (P06239 whole entry): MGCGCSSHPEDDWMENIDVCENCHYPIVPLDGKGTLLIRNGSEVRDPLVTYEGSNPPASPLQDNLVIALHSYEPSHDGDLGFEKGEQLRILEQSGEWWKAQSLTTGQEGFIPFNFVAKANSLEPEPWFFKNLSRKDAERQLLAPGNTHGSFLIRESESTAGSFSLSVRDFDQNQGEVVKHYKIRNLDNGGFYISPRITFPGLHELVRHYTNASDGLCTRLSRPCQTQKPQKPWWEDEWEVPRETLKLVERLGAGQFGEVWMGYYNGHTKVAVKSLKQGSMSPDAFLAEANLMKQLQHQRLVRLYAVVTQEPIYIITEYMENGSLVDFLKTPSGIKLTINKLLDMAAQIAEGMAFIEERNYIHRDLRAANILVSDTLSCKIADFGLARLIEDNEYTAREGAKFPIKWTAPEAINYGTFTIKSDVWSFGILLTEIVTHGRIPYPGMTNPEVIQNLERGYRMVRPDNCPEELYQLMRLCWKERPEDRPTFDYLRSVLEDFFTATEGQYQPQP
Experimental: (§1) Manufacturer′s instructions (Promega Corporation, Madison, WI, USA) were applied for the kinase profiling assay protocol (TK-1 and TK-2) with small changes. According to this protocol, the kinase stocks in the kinase strips and their substrate stocks in the substrate strips were diluted with 95 µL of 2.5× kinase buffer and 15 µL of 100 µM ATP solutions, respectively. The kinase working stocks (2 µL), 2 µL of the ATP/substrate working stocks, and 1 µL of the tested compound solution (3–100 µM) and erlotinib solution (0.01–100 µM) or 5% DMSO solution in the 384-well plate were used for the kinase reactions. Following the 4 h of incubation at room temperature, the activity of kinases was screened by means of the ADP-Glo Kinase Assay (Promega Corporation, Madison, WI, USA) based on the manufacturer′s protocol. The Infinite M1000 microplate reader (Tecan, Grödig, Austria) was used to measure the kinase inhibitory effects of the compounds in a dose-response manner. Besides, the IC50 values of the tested compounds were determined using ImageJ software.

HER2 = biological target: T3, HER2 (Homo sapiens, UniProt P04626); experiment: Kinase selectivity profiling TK-1, HER2; assay type: biochemical; details: 30 µM concentration
T3 construct: purchased Promega Corporation
T3 sequence (P04626 23-1255): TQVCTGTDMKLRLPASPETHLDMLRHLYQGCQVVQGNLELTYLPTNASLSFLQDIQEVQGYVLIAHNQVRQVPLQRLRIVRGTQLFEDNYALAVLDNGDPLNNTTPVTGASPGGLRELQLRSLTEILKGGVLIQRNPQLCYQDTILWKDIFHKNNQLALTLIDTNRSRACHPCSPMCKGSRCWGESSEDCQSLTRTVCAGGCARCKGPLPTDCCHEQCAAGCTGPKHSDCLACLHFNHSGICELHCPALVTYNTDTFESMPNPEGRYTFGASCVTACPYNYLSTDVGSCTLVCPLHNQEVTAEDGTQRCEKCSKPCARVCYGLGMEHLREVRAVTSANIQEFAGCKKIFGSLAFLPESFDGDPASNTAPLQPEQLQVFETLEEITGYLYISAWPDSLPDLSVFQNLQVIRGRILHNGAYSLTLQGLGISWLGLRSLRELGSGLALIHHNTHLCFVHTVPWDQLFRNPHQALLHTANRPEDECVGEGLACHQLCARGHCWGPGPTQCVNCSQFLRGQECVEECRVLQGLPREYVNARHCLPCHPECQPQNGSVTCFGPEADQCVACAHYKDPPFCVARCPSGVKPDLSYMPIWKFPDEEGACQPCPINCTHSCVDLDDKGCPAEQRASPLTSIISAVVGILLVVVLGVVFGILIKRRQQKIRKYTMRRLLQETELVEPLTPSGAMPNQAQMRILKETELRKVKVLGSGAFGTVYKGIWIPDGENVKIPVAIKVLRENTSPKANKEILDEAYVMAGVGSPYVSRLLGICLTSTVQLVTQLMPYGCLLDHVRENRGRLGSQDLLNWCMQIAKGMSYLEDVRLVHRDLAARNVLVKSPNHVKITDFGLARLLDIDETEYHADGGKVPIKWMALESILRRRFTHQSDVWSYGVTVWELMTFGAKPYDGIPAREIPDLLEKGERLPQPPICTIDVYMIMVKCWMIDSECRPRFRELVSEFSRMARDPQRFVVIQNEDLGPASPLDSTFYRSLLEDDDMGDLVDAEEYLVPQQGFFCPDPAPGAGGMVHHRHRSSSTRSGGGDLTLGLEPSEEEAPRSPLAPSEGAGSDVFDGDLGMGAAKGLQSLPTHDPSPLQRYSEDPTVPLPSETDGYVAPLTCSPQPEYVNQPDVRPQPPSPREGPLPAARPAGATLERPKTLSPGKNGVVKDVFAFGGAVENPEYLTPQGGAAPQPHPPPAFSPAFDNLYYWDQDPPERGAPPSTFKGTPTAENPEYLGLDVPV
Experimental: as §1

Row | SMILES | IC50 [1] [µM] | melting point [°C] | IC50 [2] [µM] | IC50 [3] [µM] | percentage of A549 cells undergoing apoptosis (A549 cells) [%] | cytotoxicity towards PBMCs (in words) [3] | IC50 (EGFR TK) [µM] | LCK inhibition compared to erlotinib (LCK) | HER2 inhibition compared to erlotinib (HER2)
1 | COc1cc2c(cc1Cl)Cc1c-2nn(-c2ccc(S(C)(=O)=O)cc2)c1-c1ccc(N2CCCCC2)cc1 [Compound 6, 6-Chloro-7-methoxy-2-(4-(methylsulfonyl)phenyl)-3-[4-(piperidin-1-yl)phenyl]-2,4-dihydroindeno[1,2-c]pyrazole] | > 10 | 116 to 117 |  |  |  |  |  |  | 
2 | COc1cc2c(cc1Cl)Cc1c-2nn(-c2ccc(F)cc2)c1-c1ccc(N2CCCCC2)cc1 [Compound 2, 6-Chloro-7-methoxy-2-(4-fluorophenyl)-3-[4-(piperidin-1-yl)phenyl]-2,4-dihydroindeno[1,2-c]pyrazole] | > 10 | 188 to 190 |  |  |  |  |  |  | 
3 | C#Cc1cccc(Nc2ncnc3cc(OCCOC)c(OCCOC)cc23)c1 [Erlotinib, reference compound] | 19.7 ± 3.15 |  | 29.6 ± 5.26 | 44.3 ± 7.84 | 53.60 |  |  |  | 
4 | COc1cc2c(cc1Cl)Cc1c-2nn(-c2ccc(Cl)cc2)c1-c1ccc(N2CCCCC2)cc1 [Compound 3, 6-Chloro-7-methoxy-2-(4-chlorophenyl)-3-[4-(piperidin-1-yl)phenyl]-2,4-dihydroindeno[1,2-c]pyrazole] | > 10 |  |  |  |  |  |  |  | 
5 | COc1cc2c(cc1Cl)Cc1c-2nn(-c2ccccc2)c1-c1ccc(N2CCCCC2)cc1 [Compound 1, 6-Chloro-7-methoxy-2-phenyl-3-[4-(piperidin-1-yl)phenyl]-2,4-dihydroindeno[1,2-c]pyrazole] | 7.99 ± 1.84 |  | 3.49 ± 0.92 | 95.7 ± 11.7 |  | no significant cytotoxicity | 55.3 ± 8.68 |  | 
6 | COc1cc2c(cc1Cl)Cc1c-2nn(-c2ccc(Br)cc2)c1-c1ccc(N2CCCCC2)cc1 [Compound 4, 6-Chloro-7-methoxy-2-(4-bromophenyl)-3-[4-(piperidin-1-yl)phenyl]-2,4-dihydroindeno[1,2-c]pyrazole] | 6.13 ± 1.42 | 125 to 126 | 2.65 ± 0.75 | 19.6 ± 4.25 | 56.30 | no significant cytotoxicity | 17.6 | more significantly than erlotinib | more significantly than erlotinib
7 | COc1cc2c(cc1Cl)Cc1c-2nn(-c2ccc(C#N)cc2)c1-c1ccc(N2CCCCC2)cc1 [Compound 5, 6-Chloro-7-methoxy-2-(4-cyanophenyl)-3-[4-(piperidin-1-yl)phenyl]-2,4-dihydroindeno[1,2-c]pyrazole] | > 10 |  |  |  |  |  |  |  | 
8 | COc1cc2c(cc1Cl)Cc1c-2nn(-c2ccc(C)cc2)c1-c1ccc(N2CCCCC2)cc1 [Compound 7, 6-Chloro-7-methoxy-2-(4-methylphenyl)-3-[4-(piperidin-1-yl)phenyl]-2,4-dihydroindeno[1,2-c]pyrazole] | 8.67 ± 2.18 | 123 to 124 | 2.76 ± 0.83 | > 100 |  | no significant cytotoxicity | 46.7 ± 7.04 |  | 

Reference: PMC8778314, “A New Series of Indeno[1,2-c]pyrazoles as EGFR TK Inhibitors for NSCLC Therapy” (Molecules, 2022)
